Assay results taken from the supplement of paper PMC8967900.

How the values were obtained:
Experiment in all cases: selective drug sensitivity score (sDSS, relative to normal bone marrow) (sDSS (score)); higher = more potent and effective on the cell line relative to normal bone marrow cells
Details in all cases: 72 h
[1] = system: 380
[2] = system: 697
[3] = system: CCRF-CEM
[4] = system: CCRF-HSB2
[5] = system: COG-LL-332h
[6] = system: COG-LL-394h
[7] = system: COG-LL-402h
[8] = system: HAL-01
[9] = system: KASUMI-10
[10] = system: KASUMI-2
[11] = system: KASUMI-9
[12] = system: KOPN-8
[13] = system: MHH-CALL-2
[14] = system: MHH-CALL-3
[15] = system: MHH-CALL-4
[16] = system: MN-60
[17] = system: NALL-1
[18] = system: NALM-16
[19] = system: P30-OHKUBO
[20] = system: PF-382
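Further: ALL cell lines in 384-well plates, five doses spanning 10,000-fold, each plate scaled between vehicle and 100 µmol/L benzalkonium chloride controls, sDSS an adapted area-under-curve metric.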

SMILES | selective drug sensitivity score [1] | selective drug sensitivity score [2] | selective drug sensitivity score [3] | selective drug sensitivity score [4] | selective drug sensitivity score [5] | selective drug sensitivity score [6] | selective drug sensitivity score [7] | selective drug sensitivity score [8] | selective drug sensitivity score [9] | selective drug sensitivity score [10] | selective drug sensitivity score [11] | selective drug sensitivity score [12] | selective drug sensitivity score [13] | selective drug sensitivity score [14] | selective drug sensitivity score [15] | selective drug sensitivity score [16] | selective drug sensitivity score [17] | selective drug sensitivity score [18] | selective drug sensitivity score [19] | selective drug sensitivity score [20]
CNS(=O)(=O)Nc1nccc(Cc2c(C)c3ccc(Oc4ncccn4)cc3oc2=O)c1F (top concentration 1000 nM) | -1.18 | 0.02 | -1.18 | -1.18 | -1.08 | 1.12 | -1.18 | 0.82 | -1.18 | 1.12 | 0.02 | 2.42 | 1.32 | -1.18 | 1.02 | -1.18 | 2.22 | 0.72 | -1.18 | -0.18
C[C@H]1Oc2cc(cnc2N)-c2c(nn(C)c2C#N)CN(C)C(=O)c2ccc(F)cc21 (top concentration 1000 nM) | -0.72 | -0.72 | -0.72 | -0.72 | -0.72 | -0.72 | -0.72 | 4.18 | -0.72 | 4.68 | -0.72 | 11.3 | -0.72 | -0.72 | -0.72 | -0.72 | -0.72 | -0.72 | -0.02 | -0.72
CCc1cncnc1N1CCN(Cc2nc3cc(C(F)(F)F)ccc3[nH]2)CC1 (top concentration 10000 nM) | -0.84 | 4.16 | 0.36 | 4.16 | 1.46 | 4.56 | -0.84 | 4.76 | 2.76 | 2.76 | 3.86 | 8.36 | 5.56 | 2.46 | 5.46 | 1.96 | 8.66 | 0.06 | 5.26 | 2.96
CN(C)CC#Cc1ccc(OCCCc2sc(N3CCc4cccc(C(=O)Nc5nc6ccccc6s5)c4C3)nc2C(=O)O)c(F)c1 (top concentration 10000 nM) | 15.7 | -2.04 | 32.8 | 17.1 | 15.7 | 17 | 26.4 | 2.06 | 11 | 5.86 | -1.24 | 3.46 | 1.66 | 19 | 9.16 | -3.64 | 3.46 | -1.24 | -1.44 | 24.4
O=C(NC[C@H](O)CN1CCc2ccccc2C1)c1cc(NC2COC2)ncn1 (top concentration 10000 nM) | -0.06 | 0.84 | -0.06 | 1.64 | 1.54 | -0.06 | 0.34 | -0.06 | -0.06 | -0.06 | -0.06 | -0.06 | 0.04 | -0.06 | -0.06 | -0.06 | -0.06 | -0.06 | 0.84 | -0.06
O=C1Cc2cc(C(=O)NC3C[C@H]4CC[C@@H](C3)N4S(=O)(=O)CC3CCN(CCCC(F)(F)F)CC3)c(Cl)cc2N1 (stereo not given in full) (top concentration 10000 nM) | 0 | 0 | 0 | 0 | 0 | 0 | 0 | 0 | 0 | 0 | 0.6 | 0 | 0 | 0 | 0 | 0 | 0.6 | 0 | 0.5 | 0
CC/C(=C(\c1ccc(O)cc1)c1ccc(OCCN(C)C)cc1)c1ccccc1 [4-hydroxytamoxifen] (top concentration 10000 nM) | -1.48 | 1.32 | 1.52 | 1.82 | 0.82 | 2.12 | -3.48 | 1.92 | -1.78 | -3.78 | 3.62 | 3.22 | 2.12 | -2.58 | 0.42 | -2.08 | -1.78 | -2.88 | 4.12 | 2.52
COCC1(CO)C(=O)C2CCN1CC2 (stereo not given) [APR-246] (top concentration 10000 nM) | 4.54 | 0.24 | -0.86 | -1.16 | -0.56 | -1.16 | -1.16 | -0.36 | -1.16 | -1.16 | -0.66 | 0.54 | 6.84 | 0.14 | 0.64 | -1.16 | -1.16 | 2.44 | -0.76 | -1.16
Cc1sc2c(c1C)C(c1ccc(Cl)cc1)=N[C@@H](CC(=O)Nc1ccc(OCCOCCOCCOCCNc3cccc4c3C(=O)N(C3CCC(=O)NC3=O)C4=O)cc1)c1nnc(C)n1-2 (stereo not given in full) [ARV-825] (top concentration 300 nM) | 2.04 | 3.14 | -2.66 | 1.14 | -1.46 | -0.96 | 3.74 | -12.1 | 3.84 | -4.46 | 6.64 | 4.14 | 4.94 | 7.44 | 7.54 | -1.56 | -12.1 | 0.74 | 3.74 | 0.14
COc1cc(OC2CCN(C)CC2)ccc1Nc1ncc2c(n1)n(C1CCCC1)c(=O)n2C [AZ3146] (top concentration 10000 nM) | -2.86 | 1.04 | 0.94 | 1.84 | 1.34 | 1.04 | -0.56 | 2.24 | 3.64 | -4.16 | -0.36 | 4.54 | 1.94 | -4.16 | 0.64 | -0.16 | -2.16 | -2.56 | -0.06 | -0.86
